Assay results from publication PMC9481312, “In Vitro α-Glycosidase Inhibition and In Silico Studies of Flavonoids Isolated from Pistacia integerrima Stew ex Brandis” (BioMed Research International, 2022).

Biological target: T1, α-glycosidase (intestinal α-glycosidase; α-glucosidase)
T1 construct: gene Si; crude native extract: supernatant of sonicated rat intestinal acetone powder in saline (100:1 w/v); not purified, isoenzyme not identified
Test: colorimetric p-nitrophenyl release, 96-well plate
Type: biochemical
Settings: 5 mM p-nitrophenyl-α-D-glucopyranoside, 100 mM phosphate, pH 6.8, DMSO, 5 min preincubation; crude rat intestinal extract
Description: colorimetric p-nitrophenyl release, 96-well plate on α-glycosidase (intestinal α-glycosidase; α-glucosidase)

**Q.** Which IC50 does the source give for `C[C@H]1O[C@H](O[C@H]2[C@H](O)[C@@H](O)[C@@H](O[C@H]3[C@H](O)[C@@H](O)C(O)O[C@@H]3CO)O[C@@H]2CO)[C@H](O)[C@@H](O)[C@@H]1N[C@H]1C=C(CO)[C@@H](O)[C@H](O)[C@H]1O` (stereo partly shown) [acarbose, reference compound] here?
**A.** 841 ± 1.34 µM

**Q.** Which IC50 does the source give for `O=C1c2c(O)cc(O)cc2O[C@H](c2ccc(O)cc2)[C@H]1O` [compound 1, 3,5,7,4′-tetrahydroxy-flavanone] here?
**A.** 183.2 ± 1.22 µM

**Q.** For `O=C1C[C@@H](c2ccc(O)cc2)Oc2cc(O)cc(O)c21` [compound 2, naringenin], which IC50 is on record?
**A.** 754.2 ± 1.76 µM

**Q.** With `COc1cc(O)c2c(c1)OC(c1ccc(O)cc1)C(O)C2=O` (stereo not shown) [compound 3, 3,5,4′-trihydroxy,7-methoxy-flavanone] as the compound, how does the IC50 read?
**A.** 790 ± 2.31 µM

**Q.** For `COc1cc(O)c2c(c1)O[C@H](c1ccc(O)cc1)CC2=O` [compound 4, sakuranetin], which IC50 is on record?
**A.** 287.3 ± 2.09 µM

**Q.** `COc1cc(-c2oc3cc(O)c(OC)c(O)c3c(=O)c2O)ccc1O` [compound 5, spinacetin] was tested. Which IC50 did it give?
**A.** 826.4 ± 1.87 µM

**Q.** Which IC50 does the source give for `COc1c(O)cc2oc(-c3ccc(O)c(O)c3)c(O)c(=O)c2c1O` [compound 6, patuletin] here?
**A.** 743.1 ± 1.32 µM
